# From patent US6803371B2, “Purine inhibitors of protein kinases, G proteins and polymerases” (The Regents of the University of California, priority 1997, dated 2004)
# Columns and labels:
# [1] = target: cdc2/cyclinB; experiment: cdc2/cyclinB kinase inhibition; assay type: biochemical
# [2] = target: erk1 (Homo sapiens, UniProt P27361); experiment: erk1 kinase inhibition; assay type: biochemical; conditions: read-out: IC50 (additional kinases) erk1
# erk1, sequence (P27361 whole entry, species assumed): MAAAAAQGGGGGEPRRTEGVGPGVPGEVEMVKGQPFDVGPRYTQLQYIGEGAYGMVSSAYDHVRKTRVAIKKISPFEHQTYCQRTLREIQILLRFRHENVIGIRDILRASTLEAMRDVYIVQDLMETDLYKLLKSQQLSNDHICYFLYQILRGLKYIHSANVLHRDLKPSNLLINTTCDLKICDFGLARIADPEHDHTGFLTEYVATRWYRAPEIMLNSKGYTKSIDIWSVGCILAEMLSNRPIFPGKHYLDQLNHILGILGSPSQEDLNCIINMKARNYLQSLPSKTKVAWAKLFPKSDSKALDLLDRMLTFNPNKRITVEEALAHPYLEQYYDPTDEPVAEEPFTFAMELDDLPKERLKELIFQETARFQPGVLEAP
SMILES,IC50 [1] [nM],IC50 [2] [nM]
CC(C)n1cnc2c(Nc3cccc(Br)c3)nc(NCCO)nc21 [NG-45],270,–
CC(C)n1cnc2c(Nc3cccc(Cl)c3)nc(N[C@H](CO)c3ccccc3)nc21 [NG-59],800,–
CC(C)n1cnc2c(Nc3ccccc3Cl)nc(NCCO)nc21 [NG-43],4300,–
CC(C)n1cnc2c(Nc3cccc(F)c3)nc(NCCO)nc21 [NG-65],400,–
CC(C)n1cnc2c(Nc3ccccc3C(F)(F)F)nc(NCCO)nc21 [NG-53],10000,–
CC(C)n1cnc2c(Nc3ccccc3)nc(NCCO)nc21 [NG-42],4300,–
CC(C)[C@H](CO)Nc1nc(Nc2cc(N)cc(Cl)c2)c2ncn(C(C)C)c2n1 [NG-97],30,–
CC(C)n1cnc2c(Nc3ccc4ccccc4c3)nc(NCCO)nc21 [NG-47],430,–
CC(C)n1cnc2c(Nc3ccc(Cl)cc3Cl)nc(NCCO)nc21 [NG-54],2700,–
CC(C)n1cnc2c(Nc3cccc(Cl)c3)nc(NCCO)nc21 [NG-52],220,–
CC(C)n1cnc2c(Nc3cccc(C(F)(F)F)c3)nc(NCCO)nc21 [NG-51],420,–
CC(C)C(CO)Nc1nc(Nc2cc(Cl)cc(Cl)c2)c2ncn(C(C)C)c2n1 (stereo not shown) [NG-57],400,–
CC(C)[C@H](CO)Nc1nc(Nc2ccc(O)c(C(=O)O)c2)c2ncn(C(C)C)c2n1 [NG-94],~100,–

# Further lines, results first:
IC50 [1] [nM],IC50 [2] [nM],SMILES
2800,–,COc1ccc(CNc2nc(N(CCO)Cc3ccccc3)nc3c2ncn3C(C)C)cc1 [NG-49]
240,50000,COc1ccc(CNc2nc(N(CC(C)O)CC(C)O)nc3c2ncn3C(C)C)cc1 (stereo not shown) [NG-16]
~30,–,CC(C)[C@H](CO)Nc1nc(Nc2ccc(Cl)c(C(=O)O)c2)c2ncn(C(C)C)c2n1 [NG-96]
–,> 10000,CC[C@H](CO)Nc1nc(NCc2ccc(OC)cc2)c2ncn(C(C)C)c2n1 [NG-33]
30,–,CC(C)[C@H](CO)Nc1nc(Nc2ccc(Cl)c(N)c2)c2ncn(C(C)C)c2n1 [NG-98]
100,> 10000,COc1ccc(CNc2nc(N[C@@H](CO)CC(C)C)nc3c2ncn3C(C)C)cc1 [NG-36]
9000,–,COc1ccccc1Nc1nc(NCCO)nc2c1ncn2C(C)C [NG-46]
2300,–,CC(C)n1cnc2c(Nc3cccc(Cl)c3)nc(N[C@H](CO)C(C)(C)C)nc21 [NG-61]
2800,–,COc1ccc(CNc2nc(NCC(O)c3ccccc3)nc3c2ncn3C(C)C)cc1 (stereo not shown) [NG-50]
500,–,CCC(C)[C@@H](CO)Nc1nc(Nc2cccc(Cl)c2)c2ncn(C(C)C)c2n1 (stereo partly shown) [NG-62]
